Data taken from paper PMC8921165, “Preclinical characterization of [^18F]T-008, a novel PET imaging radioligand for cholesterol 24-hydroxylase” (European Journal of Nuclear Medicine and Molecular Imaging, 2021).

How the values were obtained:
[1] = molecular target: T1, Cholesterol 24-hydroxylase (CH24H) (Mus musculus, UniProt Q9WVK8); assay: [3H]T-008 saturation radioligand binding; autoradiography in WT vs CH24H KO mouse brain sections
T1 construct: gene Cyp46a1

[2] = molecular target: T2, Cholesterol 24-hydroxylase (CH24H) (Macaca mulatta, UniProt A0A5F7ZPE8); assay: in vivo PET enzyme occupancy, displacement of […]T-008 in rhesus brain
T2 construct: gene CYP46A1
T2 sequence (A0A5F7ZPE8 1-500): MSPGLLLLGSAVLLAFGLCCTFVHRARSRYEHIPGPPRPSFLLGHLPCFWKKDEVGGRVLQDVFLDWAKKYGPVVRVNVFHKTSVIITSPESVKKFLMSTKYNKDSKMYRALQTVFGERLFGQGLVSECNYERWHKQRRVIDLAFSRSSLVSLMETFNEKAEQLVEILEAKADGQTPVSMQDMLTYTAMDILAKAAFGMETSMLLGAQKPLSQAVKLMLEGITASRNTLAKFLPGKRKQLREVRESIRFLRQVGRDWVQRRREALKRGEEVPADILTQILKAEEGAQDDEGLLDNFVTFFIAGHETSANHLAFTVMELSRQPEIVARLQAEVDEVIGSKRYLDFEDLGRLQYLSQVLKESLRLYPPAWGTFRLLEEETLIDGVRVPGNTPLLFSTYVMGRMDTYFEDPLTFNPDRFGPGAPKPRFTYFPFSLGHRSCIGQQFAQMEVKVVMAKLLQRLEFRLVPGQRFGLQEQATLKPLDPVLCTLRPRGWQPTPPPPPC

T1 sequence (Q9WVK8 whole entry): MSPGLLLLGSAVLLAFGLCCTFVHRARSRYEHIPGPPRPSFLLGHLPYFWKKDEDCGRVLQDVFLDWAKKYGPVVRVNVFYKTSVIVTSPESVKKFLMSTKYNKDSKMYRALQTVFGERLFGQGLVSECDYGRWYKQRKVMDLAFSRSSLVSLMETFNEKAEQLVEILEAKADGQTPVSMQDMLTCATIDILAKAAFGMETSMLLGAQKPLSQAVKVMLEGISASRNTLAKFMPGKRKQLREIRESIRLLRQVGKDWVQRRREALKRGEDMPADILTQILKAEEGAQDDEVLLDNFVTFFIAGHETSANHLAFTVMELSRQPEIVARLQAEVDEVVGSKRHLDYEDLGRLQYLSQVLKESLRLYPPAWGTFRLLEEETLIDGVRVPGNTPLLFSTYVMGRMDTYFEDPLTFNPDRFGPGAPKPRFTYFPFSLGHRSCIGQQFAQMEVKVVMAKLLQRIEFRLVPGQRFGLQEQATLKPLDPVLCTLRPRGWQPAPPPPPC

SMILES | Kd [1] | EC50 [2]
O=C(C1CCN(c2cncnc2-c2ccc(F)cc2)CC1)N1CC(F)C1 [T-008, (3-fluoroazetidin-1-yl){1-[4-(4-fluorophenyl)pyrimidin-5-yl]piperidin-4-yl}methanone] | 14 ± 1 nM | 
O=C(c1cccnc1-c1ccncc1)N1CCC(O)(Cc2ccccc2)CC1 [soticlestat, (4-benzyl-4-hydroxypiperidin-1-yl)(2,4′-bipyridin-3-yl) methanone] |  | 3.39 nM
